Source: PubChem BioAssay AID602187 (Broad Institute, 2012)
Activity calls are given as the source filed them.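 How the source made its calls: active means compounds lowering yeast growth whose fitted half-maximal concentration is at most twice the top tested dose; inconclusive means flat partial growth drop between 30 and 70 percent, or poor fit; inactive means the rest.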

System: S. cerevisiae growth in glucose medium, OD600, 48 h
Experiment: S. cerevisiae growth inhibition on glucose, dose response, glucose medium, OD600, dry powder (AID 602187)
Conditions: not given

Structure (SMILES) | AC50 [µM]
Oc1c(CN2CCc3ccccc3C2)cc(Cl)c2cccnc12 | 15.3
O=C(NNC(=S)Nc1ccc(Cl)c(Cl)c1)c1ccccn1 | 22
O=C(Oc1c(Cl)cc(Cl)c2cccnc12)c1ccco1 | 0.346
O=C(Nc1nc(-c2ccccn2)cs1)c1ccc(Cl)s1 | 1.75
Oc1c(C(c2ccccc2Cl)N2CCCCC2)ccc2cccnc12 (centres undefined) | 16.3
Cc1ccc(C(=O)Nc2nc(-c3ccccn3)cs2)cc1 | 6.06
O=C(Nc1nc(-c2ccccn2)cs1)c1ccc(Br)s1 | 0.737
CCCC(=O)NC(c1cccs1)c1cc(Cl)c2cccnc2c1O (centres undefined) | 5.88
CN1CCN(C(c2ccc(C(F)(F)F)cc2)c2ccc3cccnc3c2O)CC1 (centres undefined) | 3.32
Cc1ccc(-c2nc3c(Cl)cc(Cl)cc3c(=O)n2O)cc1 | 2.01
C=CCNC(=S)N/N=C(\C)c1ccccn1 | 6.93

System: not listed separately
Experiment: as above
Conditions: S. cerevisiae growth in glucose medium, OD600, 48 h; at 19.5 µM (top of the series)

Structure (SMILES) | activity change, negative = inhibition
COc1ccc(-c2nnc(NC(=O)c3ccc(S(=O)(=O)N4CCCc5ccccc54)cc3)o2)cc1 | 19.9% (inactive)
O=C(Nc1nc(-c2ccccc2)cs1)c1ccc(Br)s1 | 25.4% (inactive)
Oc1c(C(c2ccc(Cl)cc2)N2CCCC2)ccc2cccnc12 (centres undefined) | 7.98% (inactive)
NC(=O)c1cccc(C(=O)Nc2nc(-c3ccc4c(c3)CCCC4)cs2)c1 | 9.9% (inactive)
O=C(Nc1nc(-c2ccc3c(c2)CCCC3)cs1)c1ccccc1 | 34% (inactive)
CCOC(=O)N1C(=O)C2(CCCCC2)N(c2ccc(C)cc2)C1=S | 13.1% (inactive)
Cc1ccc(C(=O)Nc2nnc(-c3ccccc3)o2)cc1C | 28.3% (inactive)
C/C(=N\NC(=O)c1cc2ccccc2cc1O)c1ccccn1 | -15% (inactive)
Cc1cc(C)n(-c2nc3ccccc3c(=O)n2OCC#N)n1 | -16.8% (inactive)
O=C(Nc1nnc(-c2ccc3c(c2)CCCC3)o1)c1ccccc1 | -13.1% (inactive)
O=C(Nc1nc(-c2ccccn2)cs1)c1ccccc1 | -9.7% (inactive)
O=C(Nc1nnc(-c2ccc3c(c2)CCCC3)o1)c1ccc(Cl)cc1Cl | -3.17% (inactive)

Same assay, conditions: S. cerevisiae growth in glucose medium, OD600, 48 h; at 23.5 µM (top of the series)

Structure (SMILES) | activity change, negative = inhibition
Oc1c(CN2CCN(c3ccccc3)CC2)cc(Cl)c2cccnc12 | 11.7% (inactive)
